The results in this text go back to patent publication US20230312528A1, “2-OXO-IMIDAZOLIDINE-4-CARBOXAMIDES AS NAV1.8 INHIBITORS” (Merck Sharp & Dohme LLC, priority 2020, published 2023).

A word on the IC50: it is the point on the concentration scale where inhibition reaches its midpoint. A low value points to inhibition by little substance.

In the assay the target is human NaV1.8 (Homo sapiens (Human), UniProt Q9Y5Y9). Nature of the assay: Nav1.8 Qube automated patch-clamp assay. The format is cell-based. The settings on record: human NaV1.8 stably expressed in HEK 293 cells; automated 384-well patch-clamp; resting or inactivated state not specified. The method in brief: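 Human NaV1.8 in HEK293 cells, automated whole-cell patch clamp at room temperature: 1 Hz train of ten 20 ms pulses to 10 mV from −90 mV, repolarization to −67 mV. First- and tenth-pulse peak currents gave resting and inactivated-state IC50 values via Hill fits.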
Sequence of human NaV1.8 (Q9Y5Y9 whole entry): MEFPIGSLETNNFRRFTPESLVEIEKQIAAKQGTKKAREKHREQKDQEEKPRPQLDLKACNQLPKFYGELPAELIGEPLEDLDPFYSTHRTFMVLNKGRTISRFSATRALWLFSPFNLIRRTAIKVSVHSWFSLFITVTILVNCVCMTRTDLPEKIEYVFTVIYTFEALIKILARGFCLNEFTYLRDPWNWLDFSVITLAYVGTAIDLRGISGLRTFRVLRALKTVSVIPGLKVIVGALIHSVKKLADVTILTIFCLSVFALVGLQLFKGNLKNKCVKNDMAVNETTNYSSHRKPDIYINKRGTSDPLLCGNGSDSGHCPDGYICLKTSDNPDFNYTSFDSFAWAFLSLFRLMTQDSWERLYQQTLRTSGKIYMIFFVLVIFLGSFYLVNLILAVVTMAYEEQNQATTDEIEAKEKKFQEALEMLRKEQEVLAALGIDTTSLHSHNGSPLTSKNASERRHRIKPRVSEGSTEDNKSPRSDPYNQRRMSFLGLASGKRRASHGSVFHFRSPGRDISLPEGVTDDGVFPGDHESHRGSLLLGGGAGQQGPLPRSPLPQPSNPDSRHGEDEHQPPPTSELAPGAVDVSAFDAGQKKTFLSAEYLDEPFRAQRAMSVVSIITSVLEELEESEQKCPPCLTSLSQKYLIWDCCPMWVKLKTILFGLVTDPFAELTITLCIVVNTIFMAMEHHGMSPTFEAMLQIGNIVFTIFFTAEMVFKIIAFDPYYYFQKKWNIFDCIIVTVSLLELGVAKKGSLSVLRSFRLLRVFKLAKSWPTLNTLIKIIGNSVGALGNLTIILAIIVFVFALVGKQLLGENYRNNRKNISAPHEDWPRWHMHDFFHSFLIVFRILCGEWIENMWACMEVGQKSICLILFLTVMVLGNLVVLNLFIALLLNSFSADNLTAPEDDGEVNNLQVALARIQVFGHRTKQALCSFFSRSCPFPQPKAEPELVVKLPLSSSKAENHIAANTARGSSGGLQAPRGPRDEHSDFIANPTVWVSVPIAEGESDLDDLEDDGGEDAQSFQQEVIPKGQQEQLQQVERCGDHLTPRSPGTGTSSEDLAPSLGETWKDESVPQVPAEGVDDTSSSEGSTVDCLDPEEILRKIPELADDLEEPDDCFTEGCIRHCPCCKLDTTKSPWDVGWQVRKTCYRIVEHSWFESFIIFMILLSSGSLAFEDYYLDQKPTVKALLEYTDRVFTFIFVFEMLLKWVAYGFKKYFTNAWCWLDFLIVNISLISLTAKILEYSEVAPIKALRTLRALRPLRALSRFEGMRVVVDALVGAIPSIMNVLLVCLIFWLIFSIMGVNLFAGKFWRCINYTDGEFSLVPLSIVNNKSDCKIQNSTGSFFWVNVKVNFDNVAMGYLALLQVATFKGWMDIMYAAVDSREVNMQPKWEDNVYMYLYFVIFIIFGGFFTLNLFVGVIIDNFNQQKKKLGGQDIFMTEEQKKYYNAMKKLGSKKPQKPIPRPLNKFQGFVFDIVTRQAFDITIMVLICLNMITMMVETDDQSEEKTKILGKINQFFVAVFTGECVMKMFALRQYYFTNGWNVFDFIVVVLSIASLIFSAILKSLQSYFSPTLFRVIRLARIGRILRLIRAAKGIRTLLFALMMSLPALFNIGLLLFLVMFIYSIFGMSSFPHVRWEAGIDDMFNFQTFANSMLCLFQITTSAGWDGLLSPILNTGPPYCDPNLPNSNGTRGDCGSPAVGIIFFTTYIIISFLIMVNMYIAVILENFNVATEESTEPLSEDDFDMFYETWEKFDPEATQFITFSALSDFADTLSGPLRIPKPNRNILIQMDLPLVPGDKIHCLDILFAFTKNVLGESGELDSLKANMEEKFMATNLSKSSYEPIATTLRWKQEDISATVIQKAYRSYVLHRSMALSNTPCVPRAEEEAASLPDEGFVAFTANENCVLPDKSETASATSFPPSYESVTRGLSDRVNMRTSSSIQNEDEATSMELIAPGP
Background: Patch clamp records ionic current or voltage across a cell membrane.

The molecule `O=C1NC[C@@H](C(=O)NC(c2ccc(F)c(C(F)F)n2)c2ccc(F)c(Cl)c2F)N1` (single isomer, unassigned) [Example 63A, (S)-N-((R or S)-(3-chloro-2,4-difluorophenyl)(6-(difluoromethyl)-5-fluoropyridin-2-yl)methyl)-2-oxoimidazolidine-4-carboxamide] yielded an IC50 of 4.2 nM.

`O=C1NC[C@@H](C(=O)NC(c2ccc(F)c(C(F)F)n2)c2ccc(F)c(Cl)c2F)N1` (single isomer, unassigned) [Example 63B, (S)-N-((R or S)-(3-chloro-2,4-difluorophenyl)(6-(difluoromethyl)-5-fluoropyridin-2-yl)methyl)-2-oxoimidazolidine-4-carboxamide] came in with an IC50 of 16 nM.

In turn, `O=C1NC[C@@H](C(=O)NC(c2cnc(OC(F)F)nc2)c2ccc(F)c(Cl)c2F)N1` (single isomer, unassigned) [Example 64A, (S)-N-((R or S)-(3-chloro-2,4-difluorophenyl)(2-(difluoromethoxy)pyrimidin-5-yl)methyl)-2-oxoimidazolidine-4-carboxamide] yielded an IC50 of 79 nM.

Consider `O=C1NC[C@@H](C(=O)NC(c2cnc(OC(F)F)nc2)c2ccc(F)c(Cl)c2F)N1` (single isomer, unassigned) [Example 64B, (S)-N-((R or S)-(3-chloro-2,4-difluorophenyl)(2-(difluoromethoxy)pyrimidin-5-yl)methyl)-2-oxoimidazolidine-4-carboxamide], for which it took 805 nM to reach half-maximal inhibition (IC50).

Consider `CC(N1CC(C)(C(NC(=O)[C@@H]2CNC(=O)N2)c2ccc(F)c(Cl)c2F)C1)C(F)(F)F` (single isomer, unassigned) [Example 65A, (S)—N—((R or S)-(3-chloro-2,4-difluorophenyl)(3-methyl-1-((R or S)-1,1,1-trifluoropropan-2-yl)azetidin-3-yl)methyl)-2-oxoimidazolidine-4-carboxamide], for which half-maximal inhibition (IC50) was put at 16200 nM.

`CC(N1CC(C)(C(NC(=O)[C@@H]2CNC(=O)N2)c2ccc(F)c(Cl)c2F)C1)C(F)(F)F` (single isomer, unassigned) [Example 65B, (S)—N—((R or S)-(3-chloro-2,4-difluorophenyl)(3-methyl-1-((R or S)-1,1,1-trifluoropropan-2-yl)azetidin-3-yl)methyl)-2-oxoimidazolidine-4-carboxamide] registered an IC50 of 302 nM.

The molecule `CC(N1CC(C)(C(NC(=O)[C@@H]2CNC(=O)N2)c2ccc(F)c(Cl)c2F)C1)C(F)(F)F` (single isomer, unassigned) [Example 65C, (S)—N—((R or S)-(3-chloro-2,4-difluorophenyl)(3-methyl-1-((R or S)-1,1,1-trifluoropropan-2-yl)azetidin-3-yl)methyl)-2-oxoimidazolidine-4-carboxamide] returned an IC50 of 309 nM.

Regarding `CC(N1CC(C)(C(NC(=O)[C@@H]2CNC(=O)N2)c2ccc(F)c(Cl)c2F)C1)C(F)(F)F` (single isomer, unassigned) [Example 65D, (S)—N—((R or S)-(3-chloro-2,4-difluorophenyl)(3-methyl-1-((R or S)-1,1,1-trifluoropropan-2-yl)azetidin-3-yl)methyl)-2-oxoimidazolidine-4-carboxamide], half-maximal inhibition (IC50) required 7760 nM.

In the case of `Cc1nc2cc(C(NC(=O)[C@@H]3CNC(=O)N3)c3ccc(F)c(Cl)c3)ccc2s1` (single isomer, unassigned) [Example 66A, (S)—N—((R or S)-(3-chloro-4-fluorophenyl)(2-methylbenzo[d]thiazol-5-yl)methyl)-2-oxoimidazolidine-4-carboxamide], the IC50 was determined as 63 nM.

Molecule `Cc1nc2cc(C(NC(=O)[C@@H]3CNC(=O)N3)c3ccc(F)c(Cl)c3)ccc2s1` (single isomer, unassigned) [Example 66B, (S)—N—((R or S)-(3-chloro-4-fluorophenyl)(2-methylbenzo[d]thiazol-5-yl)methyl)-2-oxoimidazolidine-4-carboxamide] returned an IC50 of 3.8 nM. Against the preceding molecule, the IC50 is about 17-fold lower.

In turn, `O=C1NC[C@@H](C(=O)NC(c2ccc(F)c(Cl)c2)[C@@H]2CC[C@H]2C(F)(F)F)N1` (single isomer, unassigned) [Example 67A, (S)-N-((R or S)-(3-chloro-4-fluoro-phenyl)(trans-2-(trifluoromethyl)cyclobutyl)methyl)-2-oxoimidazolidine-4-carboxamide] came in with an IC50 of 182 nM.

`O=C1NC[C@@H](C(=O)NC(c2ccc(F)c(Cl)c2)[C@@H]2CC[C@H]2C(F)(F)F)N1` (single isomer, unassigned) [Example 67B, (S)-N-((R or S)-(3-chloro-4-fluoro-phenyl)(trans-2-(trifluoromethyl)cyclobutyl)methyl)-2-oxoimidazolidine-4-carboxamide]: the IC50 was 965 nM.

Regarding `O=C1NC[C@@H](C(=O)NC(c2ccc(F)c(Cl)c2)C2Cc3c(Cl)cccc32)N1` (single isomer, unassigned) [Example 70A, (S)-N-((R or S)-(3-chloro-4-fluoro-phenyl)((R or S)-2-chlorobicyclo[4.2.0]-octa-1(6),2,4-trien-7-yl)methyl)-2-oxoimidazolidine-4-carboxamide], the IC50 was 26 nM.

Turning to `O=C1NC[C@@H](C(=O)NC(c2ccc(F)c(Cl)c2)C2Cc3c(Cl)cccc32)N1` (single isomer, unassigned) [Example 70B, (S)-N-((R or S)-(3-chloro-4-fluoro-phenyl)((R or S)-2-chlorobicyclo[4.2.0]-octa-1(6),2,4-trien-7-yl)methyl)-2-oxoimidazolidine-4-carboxamide], the IC50 turned out to be 9 nM.

With `O=C1NC[C@@H](C(=O)NC(c2ccc(F)c(Cl)c2)C2Cc3c(Cl)cccc32)N1` (single isomer, unassigned) [Example 70C, (S)-N-((R or S)-(3-chloro-4-fluoro-phenyl)((R or S)-2-chlorobicyclo[4.2.0]-octa-1(6),2,4-trien-7-yl)methyl)-2-oxoimidazolidine-4-carboxamide], it took 117 nM to reach half-maximal inhibition (IC50). This IC50 lies about 13-fold higher than the previous one.

For `O=C1NC[C@@H](C(=O)NC(c2ccc(F)c(Cl)c2)C2Cc3c(Cl)cccc32)N1` (single isomer, unassigned) [Example 70D, (S)-N-((R or S)-(3-chloro-4-fluoro-phenyl)((R or S)-2-chlorobicyclo[4.2.0]-octa-1(6),2,4-trien-7-yl)methyl)-2-oxoimidazolidine-4-carboxamide], inhibition was half-maximal at 650 nM (IC50).

In turn, `O=C1NC[C@@H](C(=O)NC(c2ccc(F)c(Cl)c2)c2cc3cc(Cl)ccc3o2)N1` (single isomer, unassigned) [Example 73A, (S)-N-((R or S)-(3-chloro-4-fluorophenyl)(5-chlorobenzofuran-2-yl)methyl)-2-oxoimidazolidine-4-carboxamide] showed an IC50 of 0.2 nM. Against the preceding molecule, the IC50 is about 3200-fold lower.

`O=C1NC[C@@H](C(=O)NC(c2ccc(F)c(Cl)c2)c2cc3cc(Cl)ccc3o2)N1` (single isomer, unassigned) [Example 73B, (S)-N-((R or S)-(3-chloro-4-fluorophenyl)(5-chlorobenzofuran-2-yl)methyl)-2-oxoimidazolidine-4-carboxamide] gave an IC50 of 0.2 nM.

As for `O=C1NC[C@@H](C(=O)NC(c2ccc(Cl)cc2)c2cccc(OC(F)F)n2)N1` (single isomer, unassigned) [Example 74A, (S)-N-((R or S)-(4-chlorophenyl)(6-(difluoromethoxy)pyridin-2-yl)methyl)-2-oxoimidazolidine-4-carboxamide], half-maximal inhibition (IC50) was put at 19 nM.

Consider `O=C1NC[C@@H](C(=O)NC(c2ccc(Cl)cc2)c2cccc(OC(F)F)n2)N1` (single isomer, unassigned) [Example 74B, (S)-N-((R or S)-(4-chlorophenyl)(6-(difluoromethoxy)pyridin-2-yl)methyl)-2-oxoimidazolidine-4-carboxamide], for which the midpoint of inhibition, the IC50, lay at 244 nM.

Turning to `Cn1nc(C(NC(=O)[C@@H]2CNC(=O)N2)c2ccc(Cl)cc2)cc1C(F)(F)F` (single isomer, unassigned) [Example 75A], the IC50 stood at 58 nM.

In the case of `Cn1nc(C(NC(=O)[C@@H]2CNC(=O)N2)c2ccc(Cl)cc2)cc1C(F)(F)F` (single isomer, unassigned) [Example 75B], the IC50 was 115 nM.

`O=C1NC[C@@H](C(=O)NC(c2ccc(F)c(Cl)c2)C2C3CN(CC(F)(F)F)CC32)N1` (single isomer, unassigned) [Example 77A, (4S)-N-((1(R or S))-(3-chloro-4-fluorophenyl)(3-(2,2,2-trifluoroethyl)-3-azabicyclo[3.1.0]hexan-6-yl)methyl)-2-oxoimidazolidine-4-carboxamide] yielded an IC50 of 26 nM.

Molecule `O=C1NC[C@@H](C(=O)NC(c2ccc(F)c(Cl)c2)C2C3CN(CC(F)(F)F)CC32)N1` (single isomer, unassigned) [Example 77B, (4S)-N-((1(R or S))-(3-chloro-4-fluorophenyl)(3-(2,2,2-trifluoroethyl)-3-azabicyclo[3.1.0]hexan-6-yl)methyl)-2-oxoimidazolidine-4-carboxamide] had an IC50 of 267 nM.

Turning to `CN1CCC(C(NC(=O)[C@@H]2CNC(=O)N2)c2ccc(F)c(Cl)c2F)CC1C(F)(F)F` (single isomer, unassigned) [Example 78A, (S)-N-((R or S)-(3-chloro-2,4-difluoro-phenyl)((cis or trans)-1-methyl-2-(trifluoro-methyl)piperidin-4-yl)methyl)-2-oxoimidazolidine-4-carboxamide], inhibition was half-maximal at 4070 nM (IC50).

Consider `CN1CCC(C(NC(=O)[C@@H]2CNC(=O)N2)c2ccc(F)c(Cl)c2F)CC1C(F)(F)F` (single isomer, unassigned) [Example 78B, (S)-N-((R or S)-(3-chloro-2,4-difluoro-phenyl)((cis or trans)-1-methyl-2-(trifluoro-methyl)piperidin-4-yl)methyl)-2-oxoimidazolidine-4-carboxamide], for which the IC50 came to 9500 nM.
